From US20160193219A1, “SUBSTITUTED 2,3-DIHYDROIMIDAZO[1,2-C]QUINAZOLINE SALTS” (priority 2011, published 2016)
Structures can show the parent of a compound that is named as a salt. Where two headings read alike, the source gives them in different places.

Assays:
[1] = 16 h
[2] = for pH: Saturated solution in water; for XRPD (solid residue): solid retained on filter after 20 h in water at 25° C.
[3] = Stability as solid (stored at 90° C. for 1 week, HPLC); format: physicochemical; conditions: for therm. stab. solid: 1 w @ 90° C.; for sum of impurities: HPLC area
Crystallinity by XRPD = format: physicochemical
HT29 = assay: Proliferation assay (Cell Titer-Glo, 72 h), HT29; conditions: HT29, Colon, dihydrochloride
[4] = Additional solubility data in different solvents (20 h at 25° C.); format: physicochemical
Experimental: The dihydrochloride of formula (II) was stirred in 20 mL of different solvents for 20 h at 25° C. In all hydrous solvents approx. 2 g of the dihydrochloride of formula (II) have been solved completely.

T47D = assay: Proliferation assay (Cell Titer-Glo, 72 h), T47D; conditions: Breast, dihydrochloride
SK-Br-3 = assay: Proliferation assay (Cell Titer-Glo, 72 h), SK-Br-3; conditions: SK-Br-3, Breast, dihydrochloride
BT20 = assay: Proliferation assay (Cell Titer-Glo, 72 h), BT20; conditions: BT20, Breast, dihydrochloride
Colo205 = assay: Proliferation assay (Cell Titer-Glo, 72 h), Colo205; conditions: Colo205, Colon, dihydrochloride
[5] = tested on: 16 tumor cell lines covering 6 cancer indications; assay: Proliferation assays, panel of 16 tumor cell lines; format: cell-based; conditions: all the tumor cell lines tested (panel of 16)
Experimental: Cell proliferation is determined using the Cell Titer-Glo luminescent cell viability kit from Promega (Cat. #G7573) after 72 hours exposure to the drugs. Briefly, cells were plated at 500-1000 cells/well of 384-well plates in 25 μL growth medium. For each cell line assayed, cells were plated into a separate plate for determination of luminescence at the t=0 hours and t=72 hour time points. […] Dose plates for t=72 hour time points were treated with compounds diluted into growth medium in a final volume of 30 μL. Cells were then incubated for 72 hours at 37° C. Luminescence values for the t=72 hour samples were determined by adding 30 μL of Promega CellTiter-Glo solution, placing the cells on a shaker for 10 minutes at room temperature, and then reading the luminescence using a Victor luminometer. For data processing, t=0 values are subtracted from those determined for the t=72 hour time points, for both the treated and untreated samples. Percent differences in luminescence between drug treated and controls are used to determine percent inhibition of growth.

H460 = assay: Proliferation assay (Cell Titer-Glo, 72 h), H460; conditions: H460, Lung, dihydrochloride
BT474 = assay: Proliferation assay (Cell Titer-Glo, 72 h), BT474; conditions: BT474, Breast, dihydrochloride
PC3 = assay: Proliferation assay (Cell Titer-Glo, 72 h), PC3; conditions: PC3, Prostate, dihydrochloride
LNCaP = assay: Proliferation assay (Cell Titer-Glo, 72 h), LNCaP; conditions: Prostate, dihydrochloride
MCF7 = assay: Proliferation assay (Cell Titer-Glo, 72 h), MCF7; conditions: MCF7, Breast, dihydrochloride
A549 = assay: Proliferation assay (Cell Titer-Glo, 72 h), A549; conditions: A549, Lung, dihydrochloride
MDA-MB-468 = assay: Proliferation assay (Cell Titer-Glo, 72 h), MDA-MB-468; conditions: MDA-MB-468, Breast, dihydrochloride
physchem = conditions: 25 °C, water, thermodynamic from solid
786O = assay: Proliferation assay (Cell Titer-Glo, 72 h), 786O; conditions: Kidney, dihydrochloride
HCT116 = assay: Proliferation assay (Cell Titer-Glo, 72 h), HCT116; conditions: HCT116, Colon, dihydrochloride
[6] = solid stored at 90° C. for 1 week
[7] = listed as Hydrochloric acid (Ex. 1), dihydrochloride

COc1c(OCCCN2CCOCC2)ccc2c1N=C(NC(=O)c1cnc(N)nc1)N1CCN=C21.O=C(O)/C=C\C(=O)O.O=C(O)/C=C\C(=O)O [Comparative Example 5]
aqu. solubility [1]: >8.1 mg/100 ml
pH [2]: 3.1
XRPD (solid residue) [2]: crystalline
therm. stab. solid [3]: +
HPLC, area % DS [3, 6]: ~96.9% (sum of
HPLC, wt % DS [3, 6]: 59.4 wt %
sum of impurities [3, 6]: impurities ~3.1%)
crystallinity (Crystallinity by XRPD): +

COc1c(OCCCN2CCOCC2)ccc2c1N=C(NC(=O)c1cnc(N)nc1)N1CCN=C21.CS(=O)(=O)O.CS(=O)(=O)O [Comparative Example 6]
aqu. solubility [1]: >8.3 mg/100 ml
pH [2]: ~2.3
therm. stab. solid [3]: +
HPLC, area % DS [3, 6]: ~96.7% (sum of
HPLC, wt % DS [3, 6]: 59.5 wt %
sum of impurities [3, 6]: impurities ~3.3%)

COc1c(OCCCN2CCOCC2)ccc2c1N=C(NC(=O)c1cnc(N)nc1)N1CCN=C21 [dihydrochloride salt of formula (II), 2-amino-N-[7-methoxy-8-(3-morpholin-4-ylpropoxy)-2,3-dihydroimidazo[1,2-c]quinazolin-5-yl]pyrimidine-5-carboxamide dihydrochloride]
IC50 (HT29): 10 nM
Solubility ([4]; 0.1M HCl, 20 h at 25° C.): ≧8800 mg/100 ml soluble
Solubility ([4]; Acetone, 20 h at 25° C.): 0.3 mg/100 ml practically insoluble
Solubility ([4]; Acetonitrile, 20 h at 25° C.): 1.1 mg/100 ml practically insoluble
Solubility ([4]; Buffer pH 4.5, 20 h at 25° C.): ≧8900 mg/100 ml soluble
Solubility ([4]; Buffer pH 7.0, 20 h at 25° C.): ≧8700 mg/100 ml soluble
Solubility ([4]; Ethanol, 20 h at 25° C.): 24.8 mg/100 ml very slightly soluble
Solubility ([4]; PEG400, 20 h at 25° C.): 301 mg/100 ml slightly soluble
Solubility ([4]; Water, 20 h at 25° C.): ≧9400 mg/100 ml soluble
IC50 (T47D): 2 nM
IC50 (SK-Br-3): 1 nM
IC50 (BT20): 2 nM
IC50 (Colo205): 110 nM
difference in the IC50 values (free base vs dihydrochloride salt) [5]: less than 3 fold
IC50 (H460): 67 nM
IC50 (BT474): 10 nM
IC50 (PC3): 90 nM
IC50 (LNCaP): 67 nM
IC50 (MCF7): 9 nM
IC50 (A549): 44 nM
pH [2]: ~2.4
XRPD (solid residue) [2]: crystalline
Solubility ([2]; water, 25° C., 20 h, HPLC): >8.8 mg/100 ml
IC50 (MDA-MB-468): 256 nM
solubility thermodynamic at 16 h (physchem): > 88 µg/mL
IC50 (786O): 247 nM
therm. stab. solid [3, 7]: +
HPLC, area % DS [3, 6]: ~98.2%; sum of
HPLC, wt % DS [3, 6]: ~65.6 wt %
Stability as solid (Comments) [3, 6]: Stable
sum of impurities [3, 6]: impurities ~1.8%
crystallinity (Crystallinity by XRPD; [7]): ++
IC50 (HCT116): 72 nM
